Among the data in ChEMBL document CHEMBL1909046, “DrugMatrix in vitro pharmacology data” are IC50 and Ki values, retold here.

Chain of Cytochrome P450 2C19 (P33261 whole entry): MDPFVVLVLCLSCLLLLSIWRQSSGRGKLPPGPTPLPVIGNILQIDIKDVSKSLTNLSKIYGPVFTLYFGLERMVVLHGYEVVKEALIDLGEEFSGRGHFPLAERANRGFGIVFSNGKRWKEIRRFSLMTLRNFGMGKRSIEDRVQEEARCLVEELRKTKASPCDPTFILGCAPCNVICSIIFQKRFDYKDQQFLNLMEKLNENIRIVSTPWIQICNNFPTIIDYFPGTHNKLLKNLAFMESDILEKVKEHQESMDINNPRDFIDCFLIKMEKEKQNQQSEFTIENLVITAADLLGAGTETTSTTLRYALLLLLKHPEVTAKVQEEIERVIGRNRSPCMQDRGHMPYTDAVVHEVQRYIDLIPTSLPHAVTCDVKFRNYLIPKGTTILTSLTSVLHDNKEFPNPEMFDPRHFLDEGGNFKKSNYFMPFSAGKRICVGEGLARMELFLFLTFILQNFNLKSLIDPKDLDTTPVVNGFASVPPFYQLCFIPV
Chain of Vasopressin V1a receptor (P37288 whole entry): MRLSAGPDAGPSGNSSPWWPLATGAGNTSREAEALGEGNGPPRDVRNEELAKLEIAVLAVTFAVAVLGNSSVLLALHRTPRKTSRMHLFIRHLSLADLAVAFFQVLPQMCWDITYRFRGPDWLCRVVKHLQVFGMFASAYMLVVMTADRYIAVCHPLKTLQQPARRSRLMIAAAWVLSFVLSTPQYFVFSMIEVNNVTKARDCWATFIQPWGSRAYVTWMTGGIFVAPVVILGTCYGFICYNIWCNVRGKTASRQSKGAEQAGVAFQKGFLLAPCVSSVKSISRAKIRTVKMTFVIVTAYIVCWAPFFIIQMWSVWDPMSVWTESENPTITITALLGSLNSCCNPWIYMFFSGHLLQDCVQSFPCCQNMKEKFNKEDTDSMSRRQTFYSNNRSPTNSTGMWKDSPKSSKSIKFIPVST

The first series deals with Voltage-gated inwardly rectifying potassium channel KCNH2 (Homo sapiens, UniProt Q12809).
Chain of Voltage-gated inwardly rectifying potassium channel KCNH2 (Q12809 whole entry): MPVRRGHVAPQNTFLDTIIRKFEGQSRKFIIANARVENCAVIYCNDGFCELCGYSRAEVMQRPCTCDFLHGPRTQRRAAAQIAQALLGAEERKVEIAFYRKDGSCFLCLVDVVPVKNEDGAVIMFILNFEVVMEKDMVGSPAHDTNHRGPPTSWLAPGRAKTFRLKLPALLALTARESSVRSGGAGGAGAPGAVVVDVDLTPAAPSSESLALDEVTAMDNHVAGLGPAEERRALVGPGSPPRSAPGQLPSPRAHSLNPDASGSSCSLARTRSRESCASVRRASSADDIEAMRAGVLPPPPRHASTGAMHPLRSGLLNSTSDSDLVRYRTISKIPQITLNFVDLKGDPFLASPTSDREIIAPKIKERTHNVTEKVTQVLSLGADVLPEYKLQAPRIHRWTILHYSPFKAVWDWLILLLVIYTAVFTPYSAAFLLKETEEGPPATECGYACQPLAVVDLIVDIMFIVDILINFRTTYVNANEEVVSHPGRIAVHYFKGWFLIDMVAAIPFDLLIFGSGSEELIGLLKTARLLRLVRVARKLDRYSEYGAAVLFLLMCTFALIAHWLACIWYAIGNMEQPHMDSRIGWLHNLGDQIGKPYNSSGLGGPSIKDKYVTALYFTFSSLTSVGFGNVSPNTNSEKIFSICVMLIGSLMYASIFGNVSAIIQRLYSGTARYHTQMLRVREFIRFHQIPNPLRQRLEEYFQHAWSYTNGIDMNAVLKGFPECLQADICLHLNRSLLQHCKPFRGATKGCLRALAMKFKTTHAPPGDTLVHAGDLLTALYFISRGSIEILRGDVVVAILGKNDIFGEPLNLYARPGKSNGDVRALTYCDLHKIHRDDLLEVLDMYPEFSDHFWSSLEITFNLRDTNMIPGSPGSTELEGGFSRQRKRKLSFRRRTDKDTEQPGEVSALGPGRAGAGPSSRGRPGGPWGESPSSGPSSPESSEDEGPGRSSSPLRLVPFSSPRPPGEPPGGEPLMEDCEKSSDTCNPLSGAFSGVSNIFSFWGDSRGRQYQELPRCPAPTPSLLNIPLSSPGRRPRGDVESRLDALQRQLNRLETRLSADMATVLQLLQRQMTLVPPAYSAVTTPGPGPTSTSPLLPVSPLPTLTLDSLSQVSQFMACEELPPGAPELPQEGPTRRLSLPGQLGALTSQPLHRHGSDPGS
Test: not given
As to conditions: hek293.
GOLD SODIUM THIOMALATE: the IC50 result was “Not Active” and the Ki entry is on record as “Not Active”.
`CC[N+](CC)(CC)CCOc1cccc(OCC[N+](CC)(CC)CC)c1OCC[N+](CC)(CC)CC.[I-].[I-].[I-]` [GALLAMINE TRIETHIODIDE]: the IC50 entry is on record as “Not Active” and the Ki entry is “Not Active”.
As for `OCc1ccccc1` [BENZYL ALCOHOL], the IC50 entry is “Not Active” and the Ki result is given as “Not Active”.
In the case of `C=C1C(=O)O[C@@H]2C3O[C@]3(C)CC/C=C(\C)CC[C@@H]12` (stereo not given in full), the IC50 entry is on record as “Not Active” and the Ki result is “Not Active”.

A further series concerns the target T1, Cytochrome P450 2A6 (Homo sapiens, UniProt P11509). Also: in other assays of this panel Not Active means under 50% inhibition at 10 µM.
T1 sequence (P11509 whole entry): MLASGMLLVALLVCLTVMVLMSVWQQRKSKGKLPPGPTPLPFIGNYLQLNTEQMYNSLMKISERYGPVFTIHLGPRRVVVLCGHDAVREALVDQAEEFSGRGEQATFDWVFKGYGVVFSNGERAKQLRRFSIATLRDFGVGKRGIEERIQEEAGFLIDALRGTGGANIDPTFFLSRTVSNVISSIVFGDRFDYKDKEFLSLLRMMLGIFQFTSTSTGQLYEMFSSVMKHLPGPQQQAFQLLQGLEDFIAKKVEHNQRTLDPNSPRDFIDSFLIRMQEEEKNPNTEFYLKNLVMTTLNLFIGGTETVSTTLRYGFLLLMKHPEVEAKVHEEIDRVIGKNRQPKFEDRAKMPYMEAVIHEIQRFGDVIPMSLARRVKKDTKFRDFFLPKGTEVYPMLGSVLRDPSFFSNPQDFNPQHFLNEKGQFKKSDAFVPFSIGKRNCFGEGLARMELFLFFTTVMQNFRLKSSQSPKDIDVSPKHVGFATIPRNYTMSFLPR
Test: not given
As to conditions: bti-tn-5b1-4.
For GOLD SODIUM THIOMALATE, the IC50 entry was “Not Active” and the Ki result is given as “Not Active”.
As to `CC[N+](CC)(CC)CCOc1cccc(OCC[N+](CC)(CC)CC)c1OCC[N+](CC)(CC)CC.[I-].[I-].[I-]` [GALLAMINE TRIETHIODIDE], the IC50 entry is “Not Active” and the Ki entry was “Not Active”.
`OCc1ccccc1` [BENZYL ALCOHOL]: the IC50 result is “Not Active” and the Ki entry was “Not Active”.
For `C=C1C(=O)O[C@@H]2C3O[C@]3(C)CC/C=C(\C)CC[C@@H]12` (stereo not given in full), the IC50 result is recorded as “Not Active” and the Ki result was “Not Active”.

A further series addresses Cytochrome P450 2C19 (Homo sapiens, UniProt P33261).
Test: not given
As to conditions: bti-tn-5b1-4.
Turning to GOLD SODIUM THIOMALATE, the IC50 entry is “Not Active” and the Ki result is on record as “Not Active”.
For the molecule `CC[N+](CC)(CC)CCOc1cccc(OCC[N+](CC)(CC)CC)c1OCC[N+](CC)(CC)CC.[I-].[I-].[I-]` [GALLAMINE TRIETHIODIDE], the IC50 entry was “Not Active” and the Ki entry is given as “Not Active”.
For the molecule `OCc1ccccc1` [BENZYL ALCOHOL], the IC50 result is “Not Active” and the Ki result is on record as “Not Active”.
As for `C=C1C(=O)O[C@@H]2C3O[C@]3(C)CC/C=C(\C)CC[C@@H]12` (stereo not given in full), the IC50 entry was “Not Active” and the Ki entry is given as “Not Active”.

Another series has as its target Vasopressin V1a receptor (Homo sapiens, UniProt P37288). Also: in other assays of this panel Not Active means under 50% inhibition at 10 µM.
Test: not given
It counts as cell membranes, Membrane. As to conditions: hek293.
As for GOLD SODIUM THIOMALATE, the IC50 result was “Not Active” and the Ki entry was “Not Active”.
As for `CC[N+](CC)(CC)CCOc1cccc(OCC[N+](CC)(CC)CC)c1OCC[N+](CC)(CC)CC.[I-].[I-].[I-]` [GALLAMINE TRIETHIODIDE], the IC50 entry is recorded as “Not Active”.
`OCc1ccccc1` [BENZYL ALCOHOL]: the IC50 entry is “Not Active”.
Consider `C=C1C(=O)O[C@@H]2C3O[C@]3(C)CC/C=C(\C)CC[C@@H]12` (stereo not given in full), for which the IC50 entry is “Not Active”.

A further series has as its target T2, Thromboxane-A synthase (Homo sapiens, UniProt P24557).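 Also: enzyme inhibition assay with PGH2 supplied as substrate; in other assays of this panel Not Active means under 50% inhibition at 10 µM.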
T2 sequence (P24557 whole entry): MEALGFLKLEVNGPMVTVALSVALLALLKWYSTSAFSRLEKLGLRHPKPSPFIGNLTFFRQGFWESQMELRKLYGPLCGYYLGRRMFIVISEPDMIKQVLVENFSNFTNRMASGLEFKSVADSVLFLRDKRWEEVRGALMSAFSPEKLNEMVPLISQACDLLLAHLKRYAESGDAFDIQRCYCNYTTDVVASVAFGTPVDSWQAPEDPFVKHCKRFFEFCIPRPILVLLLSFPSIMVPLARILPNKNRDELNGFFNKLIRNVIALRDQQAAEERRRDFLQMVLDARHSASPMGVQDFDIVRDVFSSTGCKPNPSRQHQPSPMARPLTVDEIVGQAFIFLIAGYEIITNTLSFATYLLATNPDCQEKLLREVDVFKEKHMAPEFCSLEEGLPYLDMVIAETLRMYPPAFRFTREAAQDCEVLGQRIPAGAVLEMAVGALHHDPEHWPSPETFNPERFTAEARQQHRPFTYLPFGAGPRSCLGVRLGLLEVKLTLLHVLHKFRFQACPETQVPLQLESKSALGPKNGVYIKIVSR
Kind of series: biochemical. It counts as tissue-based, Platelet. As to conditions: platelet.
In the case of GOLD SODIUM THIOMALATE, the IC50 entry is on record as “Not Active” and the Ki entry is reported as “Not Active”.
As for `CC[N+](CC)(CC)CCOc1cccc(OCC[N+](CC)(CC)CC)c1OCC[N+](CC)(CC)CC.[I-].[I-].[I-]` [GALLAMINE TRIETHIODIDE], the IC50 result is recorded as “Not Active”.
Still for that read-out and setting: the entry for `OCc1ccccc1` [BENZYL ALCOHOL] is “Not Active”; for `C=C1C(=O)O[C@@H]2C3O[C@]3(C)CC/C=C(\C)CC[C@@H]12` (stereo not given in full) it is “Not Active”.

A further series addresses T3, Cytochrome P450 1A2 (Homo sapiens, UniProt P05177).
T3 sequence (P05177 whole entry): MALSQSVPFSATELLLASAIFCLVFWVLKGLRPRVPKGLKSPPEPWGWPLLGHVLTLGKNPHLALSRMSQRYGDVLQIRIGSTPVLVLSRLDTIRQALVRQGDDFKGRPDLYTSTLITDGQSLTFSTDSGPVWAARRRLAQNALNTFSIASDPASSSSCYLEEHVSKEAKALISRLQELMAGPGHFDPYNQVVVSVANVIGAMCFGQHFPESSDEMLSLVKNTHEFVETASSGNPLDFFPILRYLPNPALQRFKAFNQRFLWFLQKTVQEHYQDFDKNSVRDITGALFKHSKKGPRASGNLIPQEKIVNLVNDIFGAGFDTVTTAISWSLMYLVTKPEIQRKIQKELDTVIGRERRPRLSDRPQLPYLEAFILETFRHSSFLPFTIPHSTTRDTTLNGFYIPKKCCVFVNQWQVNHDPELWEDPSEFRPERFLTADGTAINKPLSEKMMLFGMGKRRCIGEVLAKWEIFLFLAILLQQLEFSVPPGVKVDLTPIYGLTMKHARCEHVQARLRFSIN
Test: not given
As to conditions: bti-tn-5b1-4.
As to GOLD SODIUM THIOMALATE, the IC50 result is reported as “Not Active” and the Ki result is “Not Active”.
On to `CC[N+](CC)(CC)CCOc1cccc(OCC[N+](CC)(CC)CC)c1OCC[N+](CC)(CC)CC.[I-].[I-].[I-]` [GALLAMINE TRIETHIODIDE], for which the IC50 entry was “Not Active” and the Ki entry is “Not Active”.
`OCc1ccccc1` [BENZYL ALCOHOL]: the IC50 result was “Not Active” and the Ki entry is on record as “Not Active”.
With `C=C1C(=O)O[C@@H]2C3O[C@]3(C)CC/C=C(\C)CC[C@@H]12` (stereo not given in full), the IC50 entry was “Not Active” and the Ki result was “Not Active”.

In the next series the target is Carbonic anhydrase 2 (Homo sapiens, UniProt P00918). Kind of series: DRUGMATRIX: Carbonic Anhydrase II enzyme inhibition (substrate: 4-Nitrophenyl acetate (4-NPA)). The format is tissue-based, Erythrocyte. As to conditions: erythrocyte; Not Active = under 50% inhibition at 10 µM.
For GOLD SODIUM THIOMALATE, the IC50 entry is on record as “Not Active” and the Ki result is recorded as “Not Active”.
Consider `CC[N+](CC)(CC)CCOc1cccc(OCC[N+](CC)(CC)CC)c1OCC[N+](CC)(CC)CC.[I-].[I-].[I-]` [GALLAMINE TRIETHIODIDE], for which the IC50 entry was “Not Active”.
On the same count and under the same terms, the result for `OCc1ccccc1` [BENZYL ALCOHOL] reads “Not Active”; that for `C=C1C(=O)O[C@@H]2C3O[C@]3(C)CC/C=C(\C)CC[C@@H]12` (stereo not given in full), “Not Active”.

In the next series the target is Cytochrome P450 3A4 (Homo sapiens, UniProt P08684). Also: in other assays of this panel Not Active means under 50% inhibition at 10 µM.
Chain of Cytochrome P450 3A4 (P08684 whole entry): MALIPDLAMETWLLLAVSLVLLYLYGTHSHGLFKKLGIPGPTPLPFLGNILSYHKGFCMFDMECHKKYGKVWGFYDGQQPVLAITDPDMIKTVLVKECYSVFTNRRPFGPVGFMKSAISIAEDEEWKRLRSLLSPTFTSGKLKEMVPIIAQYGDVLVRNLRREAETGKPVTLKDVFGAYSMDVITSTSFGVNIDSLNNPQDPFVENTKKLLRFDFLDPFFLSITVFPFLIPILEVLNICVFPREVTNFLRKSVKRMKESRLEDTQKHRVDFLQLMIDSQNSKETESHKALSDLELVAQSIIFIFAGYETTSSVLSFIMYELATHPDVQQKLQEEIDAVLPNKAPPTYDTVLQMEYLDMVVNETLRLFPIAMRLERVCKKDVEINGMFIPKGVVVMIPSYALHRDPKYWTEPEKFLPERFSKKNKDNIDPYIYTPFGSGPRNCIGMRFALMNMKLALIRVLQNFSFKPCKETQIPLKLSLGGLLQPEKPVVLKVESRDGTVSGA
Test: not given
As to conditions: bti-tn-5b1-4.
Turning to GOLD SODIUM THIOMALATE, the IC50 entry was “Not Active” and the Ki entry was “Not Active”.
As for `CC[N+](CC)(CC)CCOc1cccc(OCC[N+](CC)(CC)CC)c1OCC[N+](CC)(CC)CC.[I-].[I-].[I-]` [GALLAMINE TRIETHIODIDE], the IC50 entry is given as “Not Active” and the Ki result is “Not Active”.
As for `OCc1ccccc1` [BENZYL ALCOHOL], the IC50 entry is recorded as “Not Active” and the Ki entry is on record as “Not Active”.
With `C=C1C(=O)O[C@@H]2C3O[C@]3(C)CC/C=C(\C)CC[C@@H]12` (stereo not given in full), the IC50 entry is on record as “Not Active” and the Ki result is “Not Active”.

The next series deals with Acetylcholinesterase (Homo sapiens, UniProt P22303). Kind of series: DRUGMATRIX: Acetylcholinesterase enzyme inhibition (substrate: acetylthiocholine). The format is cell-based, HEK293. As to conditions: hek293; Not Active = under 50% inhibition at 10 µM.
Chain of Acetylcholinesterase (P22303 whole entry): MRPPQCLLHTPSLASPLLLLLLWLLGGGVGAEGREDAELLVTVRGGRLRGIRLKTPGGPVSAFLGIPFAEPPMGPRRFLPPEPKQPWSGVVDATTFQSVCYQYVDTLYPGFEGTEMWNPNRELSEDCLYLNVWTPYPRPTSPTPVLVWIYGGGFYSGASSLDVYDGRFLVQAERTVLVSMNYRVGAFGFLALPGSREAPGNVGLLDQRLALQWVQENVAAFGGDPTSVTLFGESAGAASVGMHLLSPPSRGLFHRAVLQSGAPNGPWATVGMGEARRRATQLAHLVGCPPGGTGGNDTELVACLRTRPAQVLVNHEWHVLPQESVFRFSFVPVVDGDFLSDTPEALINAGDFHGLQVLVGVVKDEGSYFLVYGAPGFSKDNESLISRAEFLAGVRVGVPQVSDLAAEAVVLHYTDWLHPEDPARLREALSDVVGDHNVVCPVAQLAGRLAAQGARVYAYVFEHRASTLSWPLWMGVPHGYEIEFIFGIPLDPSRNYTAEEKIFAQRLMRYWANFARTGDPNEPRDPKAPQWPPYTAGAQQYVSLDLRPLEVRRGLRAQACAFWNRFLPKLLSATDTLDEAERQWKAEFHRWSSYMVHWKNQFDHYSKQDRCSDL
On to GOLD SODIUM THIOMALATE, for which the IC50 entry is given as “Not Active” and the Ki entry is listed as “Not Active”.
Regarding `CC[N+](CC)(CC)CCOc1cccc(OCC[N+](CC)(CC)CC)c1OCC[N+](CC)(CC)CC.[I-].[I-].[I-]` [GALLAMINE TRIETHIODIDE], the IC50 result is given as “Not Active”.
Still for that read-out and setting: the result for `OCc1ccccc1` [BENZYL ALCOHOL] reads “Not Active”.
On the same count and under the same terms, the result for `C=C1C(=O)O[C@@H]2C3O[C@]3(C)CC/C=C(\C)CC[C@@H]12` (stereo not given in full) reads “Not Active”.

In the next series the target is T4, Neuropeptide Y receptor type 2 (Homo sapiens, UniProt P49146). Also: in other assays of this panel Not Active means under 50% inhibition at 10 µM.
T4 sequence (P49146 whole entry): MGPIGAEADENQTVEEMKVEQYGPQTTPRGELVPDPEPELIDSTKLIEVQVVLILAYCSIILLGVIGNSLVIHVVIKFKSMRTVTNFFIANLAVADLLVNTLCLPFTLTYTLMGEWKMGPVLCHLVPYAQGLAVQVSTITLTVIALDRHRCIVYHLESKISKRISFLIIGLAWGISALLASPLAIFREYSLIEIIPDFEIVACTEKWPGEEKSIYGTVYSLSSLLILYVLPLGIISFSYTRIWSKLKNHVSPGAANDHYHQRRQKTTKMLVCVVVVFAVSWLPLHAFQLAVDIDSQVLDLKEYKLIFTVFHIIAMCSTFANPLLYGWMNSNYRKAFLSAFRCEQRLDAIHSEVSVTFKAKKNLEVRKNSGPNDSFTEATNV
Test: not given
It counts as cell membranes, Membrane. As to conditions: kan-ts.
Turning to GOLD SODIUM THIOMALATE, the IC50 result was “Not Active” and the Ki entry is given as “Not Active”.
Turning to `CC[N+](CC)(CC)CCOc1cccc(OCC[N+](CC)(CC)CC)c1OCC[N+](CC)(CC)CC.[I-].[I-].[I-]` [GALLAMINE TRIETHIODIDE], the IC50 result is reported as “Not Active”.
With `OCc1ccccc1` [BENZYL ALCOHOL], the IC50 result is on record as “Not Active”.
Still for that read-out and setting: the result for `C=C1C(=O)O[C@@H]2C3O[C@]3(C)CC/C=C(\C)CC[C@@H]12` (stereo not given in full) reads “Not Active”.
